Results on 23 compounds are retold here after patent US9663526B2, “Aminopyrimidinyl compounds” (Pfizer Inc., priority 2014, dated 2017).

Type in all cases: biochemical
Assay [1] addresses recombinant human kinase domain of JAK2 (Homo sapiens (Human), UniProt O60674). Put plainly: JAK Caliper enzyme assay at 1 mM ATP (JAK2).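 Note: microfluidic mobility-shift read-out of fluorescent synthetic peptide phosphorylation, percent product converted from peak heights, room temperature, DMSO-only wells as uninhibited baseline, inhibition curve fit.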
Assay [2] concerns the target recombinant human kinase domain of TYK2 (Homo sapiens (Human), UniProt P29597). Put plainly: JAK Caliper enzyme assay at 1 mM ATP (TYK2).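 Note: microfluidic mobility-shift readout of synthetic peptide phosphorylation by TYK2, tuned to 20–30% conversion at room temperature, reaction stopped with EDTA, DMSO-only wells as uninhibited baseline.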 The note with it: 1 mM ATP; read-out: IC50 (nM) TYK2.
Assay [3] concerns the target recombinant human kinase domain of JAK3 (Homo sapiens (Human), UniProt P52333). Put plainly: JAK Caliper enzyme assay at 1 mM ATP (JAK3).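 Note: microfluidic mobility-shift readout of synthetic peptide phosphorylation, percent product converted from peak heights, normalized to DMSO-only wells as uninhibited baseline, room temperature incubation.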
In assay [4] the target is recombinant human kinase domain of JAK1 (Homo sapiens (Human), UniProt P23458). Description: JAK Caliper enzyme assay at 1 mM ATP (JAK1).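 Note: microfluidic mobility-shift readout of synthetic fluorescent peptide phosphorylation, percent product converted from peak height, inhibition relative to DMSO-only wells as uninhibited baseline, room temperature incubation.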
Sequence of recombinant human kinase domain of JAK1 (P23458 875-1153): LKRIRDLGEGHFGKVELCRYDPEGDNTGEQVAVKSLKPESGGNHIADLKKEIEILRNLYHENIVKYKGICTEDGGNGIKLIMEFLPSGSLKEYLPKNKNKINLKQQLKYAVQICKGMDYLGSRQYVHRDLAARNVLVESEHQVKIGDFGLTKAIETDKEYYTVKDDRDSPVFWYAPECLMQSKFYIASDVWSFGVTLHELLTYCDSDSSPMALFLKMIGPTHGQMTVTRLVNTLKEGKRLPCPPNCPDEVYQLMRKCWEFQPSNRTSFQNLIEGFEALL
Setting [5] is: 1 mM ATP, read-out: IC50 (nM) JAK3.
The mark [6] stands for this setting: 1 mM ATP, read-out: IC50 (nM) JAK1.

Read-outs that look alike come from different tables or passages of the source.

Sequence of recombinant human kinase domain of TYK2 (P29597 897-1176): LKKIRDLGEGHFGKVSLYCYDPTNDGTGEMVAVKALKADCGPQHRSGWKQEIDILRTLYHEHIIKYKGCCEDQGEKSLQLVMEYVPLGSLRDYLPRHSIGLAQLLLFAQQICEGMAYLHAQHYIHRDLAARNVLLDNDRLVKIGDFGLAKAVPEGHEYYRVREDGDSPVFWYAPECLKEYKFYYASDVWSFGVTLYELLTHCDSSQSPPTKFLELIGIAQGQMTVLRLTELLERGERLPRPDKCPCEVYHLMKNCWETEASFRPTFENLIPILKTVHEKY
Sequence of recombinant human kinase domain of JAK3 (P52333 822-1111): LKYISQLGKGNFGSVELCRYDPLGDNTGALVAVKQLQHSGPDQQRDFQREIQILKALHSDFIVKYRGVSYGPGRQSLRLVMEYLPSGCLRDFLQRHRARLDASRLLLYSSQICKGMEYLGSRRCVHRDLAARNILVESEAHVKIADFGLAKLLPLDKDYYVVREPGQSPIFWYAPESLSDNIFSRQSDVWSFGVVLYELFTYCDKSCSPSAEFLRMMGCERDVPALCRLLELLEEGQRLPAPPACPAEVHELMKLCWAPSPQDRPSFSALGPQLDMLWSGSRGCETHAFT
Sequence of recombinant human kinase domain of JAK2 (O60674 849-1124): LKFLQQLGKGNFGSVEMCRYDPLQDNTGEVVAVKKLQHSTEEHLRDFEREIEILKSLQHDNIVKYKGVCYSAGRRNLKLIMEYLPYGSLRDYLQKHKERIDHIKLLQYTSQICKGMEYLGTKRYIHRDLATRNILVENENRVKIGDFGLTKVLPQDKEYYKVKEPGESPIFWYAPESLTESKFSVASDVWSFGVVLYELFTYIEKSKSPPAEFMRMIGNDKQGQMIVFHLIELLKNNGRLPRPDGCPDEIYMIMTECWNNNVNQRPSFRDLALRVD

On to `Cn1cc(Nc2nccc(N3C[C@H]4CC[C@@H](C3)N4C(=O)[C@@H]3C[C@@H]3F)n2)cn1` [Example 43, [(1S,2S)-2-fluorocyclopropyl][(1R,5S)-3-{2-[(1-methyl-1H-pyrazol-4-yl)amino]pyrimidin-4-yl}-3,8-diazabicyclo[3.2.1]oct-8-yl]methanone], for which the IC50 in assay [1] was 2840 nM; in assay [2], 474 nM; in assay [3] (setting [5]), greater than 10000 nM; in assay [4] (setting [6]), 902 nM.
Take `O=C(N[C@@]12C[C@@H]1CN(c1nc(Nc3cnn(CCO)c3)ncc1Cl)C2)C1CC1` [Example 107, N-[(1S,5R)-3-(5-chloro-2-{[1-(2-hydroxyethyl)-1H-pyrazol-4-yl]amino}pyrimidin-4-yl)-3-azabicyclo[3.1.0]hex-1-yl]cyclopropanecarboxamide]: the IC50 in assay [1] stood at 177 nM; in assay [2] it was 21 nM; in assay [3] (setting [5]), 1880 nM; in assay [4] (setting [6]), 19 nM.
The corresponding values for `CC(C)NC(=O)N1[C@@H]2CC[C@H]1CN(c1ccnc(Nc3cnn(C)c3)n1)C2` [Example 88, (1R,5S)-3-{2-[(1-methyl-1H-pyrazol-4-yl)amino]pyrimidin-4-yl}-N-(propan-2-yl)-3,8-diazabicyclo[3.2.1]octane-8-carboxamide] are 894 nM, 110 nM, greater than 10000 nM and 165 nM.
The corresponding values for `CNC(=O)c1cc(Nc2nccc(N3C[C@H]4CC[C@@H](C3)N4C(=O)[C@@H]3CC3(F)F)n2)cc(CO)n1` [Example 41, 4-({4-[(1R,5S)-8-{[(1S)-2,2-difluorocyclopropyl]carbonyl}-3,8-diazabicyclo[3.2.1]oct-3-yl]pyrimidin-2-yl}amino)-6-(hydroxymethyl)-N-methylpyridine-2-carboxamide] are 279 nM, 84 nM, greater than 10000 nM and 201 nM.
Consider `O=C(N[C@]12C[C@H]1CN(c1nc(Nc3cnn(CCO)c3)ncc1Cl)C2)C1CC1` [Example 108, N-[(1R,5S)-3-(5-chloro-2-{[1-(2-hydroxyethyl)-1H-pyrazol-4-yl]amino}pyrimidin-4-yl)-3-azabicyclo[3.1.0]hex-1-yl]cyclopropanecarboxamide], for which the IC50 in assay [1] stood at 1490 nM; in assay [2], 675 nM; in assay [3] (setting [5]), 3960 nM; in assay [4] (setting [6]) it was 323 nM.
The corresponding values for `CCCNC(=O)c1cc(Nc2ncc(F)c(N3C[C@H]4CC[C@@H](C3)N4C(=O)C3CC3)n2)n[nH]1` [Example 2, 3-({4-[(1R,5S)-8-(cyclopropylcarbonyl)-3,8-diazabicyclo[3.2.1]oct-3-yl]-5-fluoropyrimidin-2-yl}amino)-N-propyl-1H-pyrazole-5-carboxamide] are 4720 nM, 432 nM, greater than 10000 nM and 1550 nM.
Regarding `C[C@H](CO)c1ccc(Nc2ncc(F)c(N3C[C@H]4[C@@H](C)[C@@]4(NC(=O)C4CC4)C3)n2)cn1` (single isomer, unassigned) [Example 104], the concentration for half-maximal inhibition (IC50) is 3130 nM in assay [1], 86 nM in assay [2], greater than 10000 nM in assay [3] (setting [5]) and 1150 nM in assay [4] (setting [6]).
As for `CCNC(=O)c1ccc(Nc2ncc(F)c(N3CC4CC(C3)N4C(=O)C(C)(F)F)n2)cc1C` [Example 111, 4-({4-[6-(2,2-difluoropropanoyl)-3,6-diazabicyclo[3.1.1]hept-3-yl]-5-fluoropyrimidin-2-yl}amino)-N-ethyl-2-methylbenzamide], the 50% inhibitory concentration (IC50) in assay [1] came to 2210 nM; in assay [2], 56 nM; in assay [3] (setting [5]), 4870 nM; in assay [4] (setting [6]) it was 1690 nM.
As for `Cn1cc(Nc2nccc(N3C[C@H]4CC[C@@H](C3)N4c3ncc(C#N)o3)n2)cn1` [Example 78, 2-[(1R,5S)-3-{2-[(1-methyl-1H-pyrazol-4-yl)amino]pyrimidin-4-yl}-3,8-diazabicyclo[3.2.1]oct-8-yl]-1,3-oxazole-5-carbonitrile], the IC50 in assay [1] is 461 nM; in assay [2], 63 nM; in assay [3] (setting [5]), greater than 10000 nM; in assay [4] (setting [6]) it was 68 nM.
On the same counts, the results for `Cn1cc(Nc2nccc(N3C[C@H]4CC[C@@H](C3)N4c3cc(C#N)ccn3)n2)cn1` [Example 92, 2-[(1R,5S)-3-{2-[(1-methyl-1H-pyrazol-4-yl)amino]pyrimidin-4-yl}-3,8-diazabicyclo[3.2.1]oct-8-yl]pyridine-4-carbonitrile] are 264 nM, 62 nM, 6560 nM and 52 nM.
On the same counts, the results for `O=C(C1CC1)N1[C@@H]2CC[C@H]1CN(c1ccnc(Nc3cnsc3)n1)C2` [Example 52, cyclopropyl{(1R,5S)-3-[2-(1,2-thiazol-4-ylamino)pyrimidin-4-yl]-3,8-diazabicyclo[3.2.1]oct-8-yl}methanone] are 1240 nM, 93 nM, greater than 10000 nM and 172 nM.
On to `Cn1cc(Nc2nccc(N3C[C@H]4CC[C@@H](C3)N4C[C@H]3C[C@@H]3C#N)n2)cn1` [Example 70, (1S,2S)-2-{[(1R,5S)-3-{2-[(1-methyl-1H-pyrazol-4-yl)amino]pyrimidin-4-yl}-3,8-diazabicyclo[3.2.1 l]oct-8-yl]methyl}cyclopropanecarbonitrile], for which the IC50 in assay [1] is 1540 nM; in assay [2] it was 261 nM; in assay [3] (setting [5]), greater than 10000 nM; in assay [4] (setting [6]) it was 259 nM.
On the same counts, the results for `CCNC(=O)c1ccc(Nc2ncc(F)c(N3C[C@H]4CC[C@@H](C3)N4C(=O)OC(C)(C)C)n2)cc1C` [Example 73, tert-butyl 3-(2-{[4-(ethylcarbamoyl)-3-methylphenyl]amino}-5-fluoropyrimidin-4-yl)-3,8-diazabicyclo[3.2.1]octane-8-carboxylate] are 170 nM, 17 nM, 1770 nM and 260 nM.
For `Cn1cc(Nc2nccc(N3C[C@H]4CC[C@@H](C3)N4C(=O)C3CC(F)(F)C3)n2)cn1` [Example 39, (3,3-difluorocyclobutyl)[(1R,5S)-3-{2-[(1-methyl-1H-pyrazol-4-yl)amino]pyrimidin-4-yl}-3,8-diazabicyclo[3.2.1]oct-8-yl]methanone], the IC50 in assay [1] is 1170 nM; in assay [2] it was 136 nM; in assay [3] (setting [5]), greater than 10000 nM; in assay [4] (setting [6]), 305 nM.
The corresponding values for `O=C(c1ccno1)N1[C@@H]2CC[C@H]1CN(c1ccnc(Nc3cn[nH]c3)n1)C2` [Example 17, 1,2-oxazol-5-yl{(1R,5S)-3-[2-(1H-pyrazol-4-ylamino)pyrimidin-4-yl]-3,8-diazabicyclo[3.2.1]oct-8-yl}methanone] are 3380 nM, 242 nM, greater than 10000 nM and 684 nM.
On the same counts, the results for `CNC(=O)c1ncc(Nc2nccc(N3C[C@H]4CC[C@@H](C3)N4C[C@H]3CC3(F)F)n2)cc1C` [Example 68, 5-({4-[(1R,5S)-8-{[(1R)-2,2-difluorocycloproDyl]methyl}-3,8-diazabicyclo[3.2.1]oct-3-yl]pyrimidin-2-yl}amino)-N,3-dimethylpyridine-2-carboxamide] are 188 nM, 22 nM, greater than 10000 nM and 85 nM.
On the same counts, the results for `Cn1cc(Nc2nccc(N3C[C@H]4CC[C@@H](C3)N4C(=O)[C@@H]3C[C@@H]3C#N)n2)cn1` [Example 37, (1S,2R)-2-{[(1R,5S)-3-{2-[(1-methyl-1H-pyrazol-4-yl)amino]pyrimidin-4-yl}-3,8-diazabicyclo[3.2.1]oct-8-yl]carbonyl}cyclopropanecarbonitrile] are 1400 nM, 250 nM, 8310 nM and 467 nM.
For the compound `CC(CC#N)N1[C@@H]2CC[C@H]1CN(c1ccnc(Nc3cn[nH]c3)n1)C2` (stereo partly drawn) [Example 82, 3-{(1R,5S)-3-[2-(1H-pyrazol-4-ylamino)pyrimidin-4-yl]-3,8-diazabicyclo[3.2.1]oct-8-yl}butanenitrile], the IC50 in assay [1] is 473 nM; in assay [2] it was 79 nM; in assay [3] (setting [5]), greater than 10000 nM; in assay [4] (setting [6]), 135 nM.
Regarding `CNC(=O)c1ncc(Nc2nccc(N3C[C@H]4CC[C@@H](C3)N4C[C@@H]3CC3(F)F)n2)cc1C` (single isomer, unassigned) [Example 67], the IC50 was 973 nM in assay [1], 108 nM in assay [2], greater than 10000 nM in assay [3] (setting [5]) and 418 nM in assay [4] (setting [6]).
On the same counts, the results for `CC(CC#N)N1[C@@H]2CC[C@H]1CN(c1ccnc(Nc3cnn(C)c3)n1)C2` (some centres unmarked) [Example 81] are 603 nM, 199 nM, greater than 10000 nM and 405 nM.
As to `CNC(=O)c1ncc(Nc2nccc(N3C[C@H]4CC[C@@H](C3)N4C(=O)[C@H]3CC3(F)F)n2)cc1F` [Example 28, 5-({4-[(1R,5S)-8-{[(1R)-2,2-difluorocyclopropyl]carbonyl}-3,8-diazabicyclo[3.2.1]oct-3-yl]pyrimidin-2-yl}amino)-3-fluoro-N-methylpyridine-2-carboxamide], the IC50 in assay [1] is 8150 nM; in assay [2] it was 736 nM; in assay [3] (setting [5]) it was greater than 10000 nM; in assay [4], 1370 nM.
Turning to `CNC(=O)c1ncc(Nc2nccc(N3C[C@H]4CC[C@@H](C3)N4[C@H]3C[C@H](C#N)C3)n2)cc1C` (single isomer, unassigned) [Example 62], the IC50 in assay [1] is 1390 nM; in assay [2], 224 nM; in assay [3], greater than 10000 nM; in assay [4], 1020 nM.
In the case of `C[C@@H]1[C@@H]2CN(c3nc(Nc4ccc([C@@H](C)CO)nc4)ncc3F)C[C@]12NC(=O)C1CC1` (single isomer, unassigned) [Example 103], the IC50 in assay [1] was 3460 nM; in assay [2] it was 150 nM; in assay [3] (setting [5]), greater than 10000 nM; in assay [4] (setting [6]), 1740 nM.

A word on the IC50: it is the concentration that gives 50% inhibition.
